The results in this text go back to patent US11034725B2, “Compositions and methods for treating cardiovascular disease” (Genentech, Inc., priority 2016, dated 2021).

One assay has as its target PCSK9 (Homo sapiens, UniProt Q8NBP7). The assay can be described thus: PCSK9/EGF(A) TR-FRET binding assay. The note with it: TR-FRET; Table 8E, additional compounds; read-out: PCSK9/EGF(A) IC50. (In general: Time-resolved FRET reads energy transfer from a long-lived donor to a nearby acceptor.)
Another assay deals with T1, PCSK9Δhelix (Homo sapiens, UniProt Q8NBP7).
T1 construct: Human PCSK9 construct M1-Q692 with an engineered TEV site (residue deletion Y166, R167); made in house; host or cells: CHO
T1 sequence (Q8NBP7 with tags, fused parts or gaps limits assumed): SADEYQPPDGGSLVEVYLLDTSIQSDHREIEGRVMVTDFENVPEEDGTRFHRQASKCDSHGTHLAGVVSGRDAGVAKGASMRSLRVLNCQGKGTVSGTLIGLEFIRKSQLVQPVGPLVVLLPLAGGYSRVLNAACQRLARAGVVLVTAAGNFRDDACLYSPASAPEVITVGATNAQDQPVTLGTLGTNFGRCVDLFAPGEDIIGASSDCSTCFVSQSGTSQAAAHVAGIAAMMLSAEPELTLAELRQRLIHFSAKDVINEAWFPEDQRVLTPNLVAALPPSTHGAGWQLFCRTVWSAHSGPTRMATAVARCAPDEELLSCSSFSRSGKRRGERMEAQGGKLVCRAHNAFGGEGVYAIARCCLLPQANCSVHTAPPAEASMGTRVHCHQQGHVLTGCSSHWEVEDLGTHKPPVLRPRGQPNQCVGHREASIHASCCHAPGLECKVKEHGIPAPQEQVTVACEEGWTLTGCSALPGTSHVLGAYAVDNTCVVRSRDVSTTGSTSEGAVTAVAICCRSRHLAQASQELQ
T1 sequence (Q8NBP7 31-152 partner limits assumed): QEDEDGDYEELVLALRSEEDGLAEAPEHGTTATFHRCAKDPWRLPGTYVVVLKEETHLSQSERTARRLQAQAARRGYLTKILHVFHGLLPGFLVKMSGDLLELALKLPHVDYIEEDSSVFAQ
The assay can be described thus: PCSK9Δhelix/Ab20 TR-FRET binding assay. The note with it: TR-FRET; Table 8E, additional compounds; read-out: PCSK9Δhelix/Ab20 IC50.

Numbered stars: 1 amine (or outer) side, 2 acyl side, 3 side chain; on linkers, the order of the positions; unused ones are H or OH. Square brackets hold non-standard residues; d marks the D form. Peptide text beside a SMILES is read from it. * marks the point of attachment. Propanoyl(3-indol-3-yl) = O=C(CCc1c[nH]c2ccccc12)*; Butyryl(4-indol-3-yl) = O=C(CCCc1c[nH]c2ccccc12)*; Propanoyl(3-(4-F-phenyl)) = O=C(CCc1ccc(F)cc1)*; Propanoyl(3-(4-MeO-Ph)) = COc1ccc(CCC(=O)*)cc1; Propanoyl(3-(3-pyridyl)) = O=C(CCc1cccnc1)*; Desaminotyrosyl = O=C(CCc1ccc(O)cc1)*; X20 = O=C(c1cc(-c2ccncc2)n[nH]1)*; X45 = CC(=O)c1ccc(OCCCC(=O)*)cc1; hArg = N=C(N)NCCCC[C@H](N)C(=O)O; X39 = O=C(C1CCC(c2ccccc2)CC1)*; X22 = O=C(C1CC(Cc2ccccc2)C1)*; X8 = O=C(c1ccc(N2CCOCC2)nc1)*; Suc = O=C(CCC(=O)[*:2])[*:1]; X11 = O=C(CCCOc1ccc(Br)cc1)*; X12 = O=C(CCCc1ccc(F)cc1)*; X30 = O=C(CCc1cccc(O)c1)*; X35 = Nc1ccc(CCC(=O)*)cn1; Morpholide = C1CN(*)CCO1; X27 = O=C(CCCN1CCOCC1)*; Cbz = O=C(OCc1ccccc1)*; Pentanoyl = CCCCC(=O)*; GABA = NCCCC(=O)O

PCSK9, sequence (Q8NBP7 153-692): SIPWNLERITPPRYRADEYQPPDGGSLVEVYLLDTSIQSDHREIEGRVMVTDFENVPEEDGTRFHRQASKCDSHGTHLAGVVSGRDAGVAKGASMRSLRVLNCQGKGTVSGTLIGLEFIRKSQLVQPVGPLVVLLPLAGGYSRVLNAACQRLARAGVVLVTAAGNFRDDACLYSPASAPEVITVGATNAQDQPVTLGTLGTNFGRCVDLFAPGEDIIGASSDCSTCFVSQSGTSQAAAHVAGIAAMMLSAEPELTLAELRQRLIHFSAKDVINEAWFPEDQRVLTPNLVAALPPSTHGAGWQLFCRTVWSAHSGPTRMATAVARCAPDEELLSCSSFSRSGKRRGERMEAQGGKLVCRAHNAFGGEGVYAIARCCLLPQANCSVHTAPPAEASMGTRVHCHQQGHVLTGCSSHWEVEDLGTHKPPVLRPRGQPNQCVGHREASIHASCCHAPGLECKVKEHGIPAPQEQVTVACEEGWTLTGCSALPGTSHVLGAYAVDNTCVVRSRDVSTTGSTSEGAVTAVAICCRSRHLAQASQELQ
PCSK9, sequence (Q8NBP7 31-152 partner limits assumed): as the sequence (Q8NBP7 31-152 partner limits assumed) above

With `CC[C@H](C)[C@H](NC(=O)[C@H](CCCNC(=N)N)NC(=O)[C@@H](NC(=O)[C@H](CC(C)C)NC(=O)[C@H](CC(N)=O)NC(=O)[C@H](Cc1c[nH]c2ccccc12)NC(=O)CCc1cccc(O)c1)C(C)C)C(=O)NCC(=O)N[C@@H](CC(C)C)C(=O)N[C@H](C(=O)N[C@@H](CCCNC(=N)N)C(N)=O)[C@@H](C)O` [Compound 168] (X30-WNLVRIGLTR-NH2), the IC50 was not below 50 µM on PCSK9 and 7.8 µM on PCSK9Δhelix.
Take `CC[C@H](C)[C@H](NC(=O)[C@H](CCCNC(=N)N)NC(=O)[C@@H](NC(=O)[C@H](CC(C)C)NC(=O)[C@H](CC(N)=O)NC(=O)[C@H](Cc1c[nH]c2ccccc12)NC(=O)CCCNC(=O)OCc1ccccc1)C(C)C)C(=O)NCC(=O)N[C@@H](CC(C)C)C(=O)N[C@H](C(=O)N[C@@H](CCCNC(=N)N)C(N)=O)[C@@H](C)O` [Compound 169] ({Cbz-GABA}-WNLVRIGLTR-NH2): the IC50 was not below 50 µM on PCSK9 and 6.8 µM at PCSK9Δhelix.
`CC[C@H](C)[C@H](NC(=O)[C@H](CCCNC(=N)N)NC(=O)[C@@H](NC(=O)[C@H](CC(C)C)NC(=O)[C@H](CC(N)=O)NC(=O)[C@H](Cc1c[nH]c2ccccc12)NC(=O)CCc1ccc(O)cc1)C(C)C)C(=O)NCC(=O)N[C@@H](CC(C)C)C(=O)N[C@H](C(=O)N[C@@H](CCCNC(=N)N)C(N)=O)[C@@H](C)O` [Compound 170] (Desaminotyrosyl-WNLVRIGLTR-NH2): the IC50 at PCSK9 was not below 50 µM; on PCSK9Δhelix it was 3.1 µM.
Taken in the same sequence, the figures for `CC[C@H](C)[C@H](NC(=O)[C@H](CCCNC(=N)N)NC(=O)[C@@H](NC(=O)[C@H](CC(C)C)NC(=O)[C@H](CC(N)=O)NC(=O)[C@H](Cc1c[nH]c2ccccc12)NC(=O)CCc1ccc(N)nc1)C(C)C)C(=O)NCC(=O)N[C@@H](CC(C)C)C(=O)N[C@H](C(=O)N[C@@H](CCCNC(=N)N)C(N)=O)[C@@H](C)O` [Compound 171] (X35-WNLVRIGLTR-NH2) were not below 50 µM and 7.7 µM.
Taken in the same sequence, the figures for `CC[C@H](C)[C@H](NC(=O)[C@H](CCCNC(=N)N)NC(=O)[C@@H](NC(=O)[C@H](CC(C)C)NC(=O)[C@H](CC(N)=O)NC(=O)[C@H](Cc1c[nH]c2ccccc12)NC(=O)c1ccc(N2CCOCC2)nc1)C(C)C)C(=O)NCC(=O)N[C@@H](CC(C)C)C(=O)N[C@H](C(=O)N[C@@H](CCCNC(=N)N)C(N)=O)[C@@H](C)O` [Compound 172] (X8-WNLVRIGLTR-NH2) were not below 50 µM and 8.5 µM.
Taken in the same sequence, the figures for `CC[C@H](C)[C@H](NC(=O)[C@H](CCCNC(=N)N)NC(=O)[C@@H](NC(=O)[C@H](CC(C)C)NC(=O)[C@H](CC(N)=O)NC(=O)[C@H](Cc1c[nH]c2ccccc12)NC(=O)CCc1cccnc1)C(C)C)C(=O)NCC(=O)N[C@@H](CC(C)C)C(=O)N[C@H](C(=O)N[C@@H](CCCNC(=N)N)C(N)=O)[C@@H](C)O` [Compound 173] ({Propanoyl(3-(3-pyridyl))}-WNLVRIGLTR-NH2) were not below 50 µM and 9.8 µM.
For `CCCCC(=O)N[C@@H](Cc1c[nH]c2ccccc12)C(=O)N[C@@H](CC(N)=O)C(=O)N[C@@H](CC(C)C)C(=O)N[C@H](C(=O)N[C@@H](CCCNC(=N)N)C(=O)N[C@H](C(=O)NCC(=O)N[C@@H](CC(C)C)C(=O)N[C@@H](CO)C(=O)N[C@@H](CCCNC(=N)N)C(N)=O)[C@@H](C)CC)C(C)C` [Compound 181] (Pentanoyl-WNLVRIGLSR-NH2), the values for the IC50 on PCSK9 and on PCSK9Δhelix were not below 50 µM and 8.9 µM, respectively.
For `CC[C@H](C)[C@H](NC(=O)[C@H](CCCNC(=N)N)NC(=O)[C@@H](NC(=O)[C@H](CC(C)C)NC(=O)[C@H](CC(N)=O)NC(=O)[C@H](Cc1c[nH]c2ccccc12)NC(=O)CCCOc1ccc(Br)cc1)C(C)C)C(=O)NCC(=O)N[C@@H](CC(C)C)C(=O)N[C@H](C(=O)N[C@@H](CCCNC(=N)N)C(N)=O)[C@@H](C)O` [Compound 182] (X11-WNLVRIGLTR-NH2), in that order: 14 µM and 4 µM.
For `CC[C@H](C)[C@H](NC(=O)[C@H](CCCNC(=N)N)NC(=O)[C@@H](NC(=O)[C@H](CC(C)C)NC(=O)[C@H](CC(N)=O)NC(=O)[C@H](Cc1c[nH]c2ccccc12)NC(=O)CCCOc1ccc(C(C)=O)cc1)C(C)C)C(=O)NCC(=O)N[C@@H](CC(C)C)C(=O)N[C@H](C(=O)N[C@@H](CCCNC(=N)N)C(N)=O)[C@@H](C)O` [Compound 183] (X45-WNLVRIGLTR-NH2), in that order: 18 µM and 2.5 µM.
For `CC[C@H](C)[C@H](NC(=O)[C@H](CCCNC(=N)N)NC(=O)[C@@H](NC(=O)[C@H](CC(C)C)NC(=O)[C@H](CC(N)=O)NC(=O)[C@H](Cc1c[nH]c2ccccc12)NC(=O)C1CC(Cc2ccccc2)C1)C(C)C)C(=O)NCC(=O)N[C@@H](CC(C)C)C(=O)N[C@H](C(=O)N[C@@H](CCCNC(=N)N)C(N)=O)[C@@H](C)O` (stereo partly shown) [Compound 184] (X22-WNLVRIGLTR-NH2), in that order: 19 µM and 12 µM.
For `CC[C@H](C)[C@H](NC(=O)[C@H](CCCNC(=N)N)NC(=O)[C@@H](NC(=O)[C@H](CC(C)C)NC(=O)[C@H](CC(N)=O)NC(=O)[C@H](Cc1c[nH]c2ccccc12)NC(=O)C1CCC(c2ccccc2)CC1)C(C)C)C(=O)NCC(=O)N[C@@H](CC(C)C)C(=O)N[C@H](C(=O)N[C@@H](CCCNC(=N)N)C(N)=O)[C@@H](C)O` (stereo partly shown) [Compound 185] (X39-WNLVRIGLTR-NH2), the IC50 came out at 5.7 µM on PCSK9 and 0.39 µM on PCSK9Δhelix.
Take `CC[C@H](C)[C@H](NC(=O)[C@H](CCCNC(=N)N)NC(=O)[C@@H](NC(=O)[C@H](CC(C)C)NC(=O)[C@H](CC(N)=O)NC(=O)[C@H](Cc1c[nH]c2ccccc12)NC(=O)c1cc(-c2ccncc2)n[nH]1)C(C)C)C(=O)NCC(=O)N[C@@H](CC(C)C)C(=O)N[C@H](C(=O)N[C@@H](CCCNC(=N)N)C(N)=O)[C@@H](C)O` [Compound 188] (X20-WNLVRIGLTR-NH2): the figures for the IC50 on PCSK9 and at PCSK9Δhelix were 22 µM and 7.6 µM, respectively.
For `CC[C@H](C)[C@H](NC(=O)[C@H](CCCNC(=N)N)NC(=O)[C@@H](NC(=O)[C@H](CC(C)C)NC(=O)[C@H](CC(N)=O)NC(=O)[C@H](Cc1c[nH]c2ccccc12)NC(=O)CCc1c[nH]c2ccccc12)C(C)C)C(=O)NCC(=O)N[C@@H](CC(C)C)C(=O)N[C@H](C(=O)N[C@@H](CCCNC(=N)N)C(N)=O)[C@@H](C)O` [Compound 189] ({Propanoyl(3-indol-3-yl)}-WNLVRIGLTR-NH2), in that order: 38 µM and 12 µM.
Taken in the same sequence, the figures for `CC[C@H](C)[C@H](NC(=O)[C@H](CCCNC(=N)N)NC(=O)[C@@H](NC(=O)[C@H](CC(C)C)NC(=O)[C@H](CC(N)=O)NC(=O)[C@H](Cc1c[nH]c2ccccc12)NC(=O)CCCc1c[nH]c2ccccc12)C(C)C)C(=O)NCC(=O)N[C@@H](CC(C)C)C(=O)N[C@H](C(=O)N[C@@H](CCCNC(=N)N)C(N)=O)[C@@H](C)O` [Compound 190] ({Butyryl(4-indol-3-yl)}-WNLVRIGLTR-NH2) were 30 µM and 7 µM.
For `CCCCC(=O)N[C@@H](Cc1c[nH]c2ccccc12)C(=O)N[C@@H](CC(N)=O)C(=O)N[C@@H](CC(C)C)C(=O)N[C@H](C(=O)N[C@@H](CCCCNC(=N)N)C(=O)N[C@H](C(=O)NCC(=O)N[C@@H](CC(C)C)C(=O)N[C@@H](CC(C)C)C(=O)N[C@@H](CCCNC(=N)N)C(N)=O)[C@@H](C)CC)C(C)C` [Compound 191, n-BuC(O)-WNLV(homoR)IGLLR-NH2] (Pentanoyl-WNLV[hArg]IGLLR-NH2), in that order: not below 50 µM and 1.3 µM.
For the compound `CC[C@H](C)[C@H](NC(=O)[C@H](CCCCNC(=N)N)NC(=O)[C@@H](NC(=O)[C@H](CC(C)C)NC(=O)[C@H](CC(N)=O)NC(=O)[C@H](Cc1c[nH]c2ccccc12)NC(=O)CCCN1CCOCC1)C(C)C)C(=O)NCC(=O)N[C@@H](CC(C)C)C(=O)N[C@@H](CC(C)C)C(=O)N[C@@H](CCCNC(=N)N)C(N)=O` [Compound 193] (X27-WNLV[hArg]IGLLR-NH2), the IC50 on PCSK9 is not below 50 µM; on PCSK9Δhelix, 1.5 µM.
Regarding `CC[C@H](C)[C@H](NC(=O)[C@H](CCCCNC(=N)N)NC(=O)[C@@H](NC(=O)[C@H](CC(C)C)NC(=O)[C@H](CC(N)=O)NC(=O)[C@H](Cc1c[nH]c2ccccc12)NC(=O)CCC(=O)N1CCOCC1)C(C)C)C(=O)NCC(=O)N[C@@H](CC(C)C)C(=O)N[C@@H](CC(C)C)C(=O)N[C@@H](CCCNC(=N)N)C(N)=O` [Compound 194] ({Morpholide-Suc}-WNLV[hArg]IGLLR-NH2), the IC50 is not below 50 µM on PCSK9 and 1.9 µM on PCSK9Δhelix.
For `CC[C@H](C)[C@H](NC(=O)[C@H](CCCCNC(=N)N)NC(=O)[C@@H](NC(=O)[C@H](CC(C)C)NC(=O)[C@H](CC(N)=O)NC(=O)[C@H](Cc1c[nH]c2ccccc12)NC(=O)CCCc1ccc(F)cc1)C(C)C)C(=O)NCC(=O)N[C@@H](CC(C)C)C(=O)N[C@@H](CC(C)C)C(=O)N[C@@H](CCCNC(=N)N)C(N)=O` [Compound 196] (X12-WNLV[hArg]IGLLR-NH2), in that order: 7.3 µM and 1.4 µM.
Taken in the same sequence, the figures for `CC[C@H](C)[C@H](NC(=O)[C@H](CCCCNC(=N)N)NC(=O)[C@@H](NC(=O)[C@H](CC(C)C)NC(=O)[C@H](CC(N)=O)NC(=O)[C@H](Cc1c[nH]c2ccccc12)NC(=O)CCc1ccc(OC)cc1)C(C)C)C(=O)NCC(=O)N[C@@H](CC(C)C)C(=O)N[C@@H](CC(C)C)C(=O)N[C@@H](CCCNC(=N)N)C(N)=O` [Compound 197] ({Propanoyl(3-(4-MeO-Ph))}-WNLV[hArg]IGLLR-NH2) were 0.97 µM and 0.09 µM.
For `CC[C@H](C)[C@H](NC(=O)[C@H](CCCCNC(=N)N)NC(=O)[C@@H](NC(=O)[C@H](CC(C)C)NC(=O)[C@H](CC(N)=O)NC(=O)[C@H](Cc1c[nH]c2ccccc12)NC(=O)CCc1ccc(F)cc1)C(C)C)C(=O)NCC(=O)N[C@@H](CC(C)C)C(=O)N[C@@H](CC(C)C)C(=O)N[C@@H](CCCNC(=N)N)C(N)=O` [Compound 198] ({Propanoyl(3-(4-F-phenyl))}-WNLV[hArg]IGLLR-NH2), in that order: 1.7 µM and 0.25 µM.
